# Reference: patent US8748426B2, “Inhibitors of diacylglycerol acyl transferase” (Piramal Enterprises Limited, priority 2009, dated 2014)
# Target: T1, hDGAT1 (Homo sapiens, UniProt O75907)
# T1 sequence (O75907 1-488): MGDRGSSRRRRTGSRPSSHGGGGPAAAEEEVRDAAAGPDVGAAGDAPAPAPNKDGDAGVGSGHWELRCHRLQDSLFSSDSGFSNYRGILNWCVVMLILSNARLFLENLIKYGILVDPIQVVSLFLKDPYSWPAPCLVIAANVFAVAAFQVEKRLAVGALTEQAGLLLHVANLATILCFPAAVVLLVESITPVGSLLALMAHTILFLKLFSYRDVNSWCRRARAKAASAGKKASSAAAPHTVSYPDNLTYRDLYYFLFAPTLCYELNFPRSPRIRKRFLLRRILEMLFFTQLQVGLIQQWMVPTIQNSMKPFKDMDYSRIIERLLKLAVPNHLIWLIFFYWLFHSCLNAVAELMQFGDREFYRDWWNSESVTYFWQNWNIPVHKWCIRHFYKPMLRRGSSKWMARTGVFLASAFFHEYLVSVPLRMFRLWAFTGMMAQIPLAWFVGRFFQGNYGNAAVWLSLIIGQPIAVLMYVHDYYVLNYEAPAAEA
# Experiment: In-vitro DGAT1 assay (14C oleoyl CoA, hDGAT1 microsomes from Sf9 cells)
# Conditions: at 1 μM
row,Compound,% Inhibition of hDGAT1
1,"CC(C)[C@@H](C(=O)O)N1Cc2ccc(-c3ccc(NC(=O)c4ccc(-c5ccccc5)cc4)c(F)c3)cc2C1=O [Example 448, (S)-2-(6-(4-Biphenyl-4-ylcarboxamido-3-fluorophenyl)-1-oxoisoindolin-2-yl)-3-methylbutanoic acid]",++ (>50% Inhibition)
2,"COc1cc(NC(=O)c2ccc(-c3ccccc3)cc2)ccc1-c1ccc2c(c1)C(=O)N([C@H](C(=O)O)C(C)C)C2 [Example 458, (S)-2-(6-(4-Biphenyl-4-ylcarboxamido-2-methoxyphenyl)-1-oxoisoindolin-2-yl)-3-methylbutanoic acid]",++ (>50% Inhibition)
3,"Cc1cc(NC(=O)c2ccc(-c3ccccc3)cc2)ccc1-c1ccc2c(c1)C(=O)N([C@H](C(=O)O)C(C)C)C2 [Example 470, (S)-2-(6-(4-Biphenyl-4-ylcarboxamido-2-methylphenyl)-1-oxoisoindolin-2-yl)-3-methylbutanoic acid]",++ (>50% Inhibition)
4,"CC(C)[C@@H](C(=O)O)N1Cc2ccc(-c3ccc(NC(=O)c4ccc(-c5ccccc5)cc4)cc3Cl)cc2C1=O [Example 482, (S)-2-(6-(4-Biphenyl-4-ylcarboxamido-2-chlorophenyl)-1-oxoisoindolin-2-yl)-3-methylbutanoic acid]",++ (>50% Inhibition)

# Same assay, conditions: read-out: % Inhibition of hDGAT1
row,Compound,inhibition at 1 µM
1,"CC(C)[C@@H](C(=O)O)N1Cc2ccc(-c3ccc(NC(=O)c4ccc5ccccc5c4)cc3C(F)(F)F)cc2C1=O [Example 428, (S)-2-(6-(4-(2-Naphthamido)-2-(trifluoromethyl)phenyl)-1-oxoisoindolin-2-yl)-3-methylbutanoic acid]",10 to 50%
2,"CCCCCc1ccc(C(=O)Nc2ccc(-c3ccc4c(c3)C(=O)N([C@H](C(=O)O)C(C)C)C4)c(C(F)(F)F)c2)cc1 [Example 430, (S)-3-Methyl-2-(1-oxo-6-(4-(4-pentylbenzamido)-2-(trifluoromethyl)phenyl)isoindolin-2-yl)butanoic acid]",10 to 50%
3,"CCCCOc1ccc(C(=O)Nc2ccc(-c3ccc4c(c3)C(=O)N([C@H](C(=O)O)C(C)C)C4)c(C(F)(F)F)c2)cc1 [Example 432, (S)-2-(6-(4-(4-Butoxybenzamido)-2-(trifluoromethyl)phenyl)-1-oxoisoindolin-2-yl)-3-methylbutanoic acid]",10 to 50%
4,"CC(C)[C@@H](C(=O)O)N1Cc2ccc(-c3ccc(NC(=O)Nc4ccc5c(c4)CCC5)c(F)c3)cc2C1=O [Example 438, (S)-2-(6-(4-(3-(2,3-Dihydro-1H-inden-5-yl)ureido)-3-fluorophenyl)-1-oxoisoindolin-2-yl)-3-methylbutanoic acid]",> 50%
5,"CCCCOc1ccc(C(=O)Nc2ccc(-c3ccc4c(c3)C(=O)N([C@H](C(=O)O)C(C)C)C4)cc2F)cc1 [Example 452, (S)-2-(6-(4-(4-Butoxybenzamido)-3-fluorophenyl)-1-oxoisoindolin-2-yl)-3-methyl butanoic acid]",> 50%
6,"CCCCOc1ccc(C(=O)Nc2ccc(-c3ccc4c(c3)C(=O)N([C@H](C(=O)O)C(C)C)C4)c(OC)c2)cc1 [Example 460, (S)-2-(6-(4-(4-Butoxybenzamido)-2-methoxyphenyl)-1-oxoisoindolin-2-yl)-3-methylbutanoic acid]",10 to 50%
7,"CCCCCc1ccc(C(=O)Nc2ccc(-c3ccc4c(c3)C(=O)N([C@H](C(=O)O)C(C)C)C4)c(OC)c2)cc1 [Example 462, (S)-2-(6-(2-Methoxy-4-(4-pentylbenzamido)phenyl)-1-oxoisoindolin-2-yl)-3-methylbutanoic acid]",10 to 50%
8,"COc1cc(NC(=O)c2ccc(OC(F)(F)F)cc2)ccc1-c1ccc2c(c1)C(=O)N([C@H](C(=O)O)C(C)C)C2 [Example 464, (S)-2-(6-(2-Methoxy-4-(4-(trifluoromethoxy)benzamido)phenyl)-1-oxoisoindolin-2-yl)-3-methylbutanoic acid]",10 to 50%
9,"CCCCOc1ccc(C(=O)Nc2ccc(-c3ccc4c(c3)C(=O)N([C@H](C(=O)O)C(C)C)C4)c(C)c2)cc1 [Example 472, (S)-2-(6-(4-(4-Butoxybenzamido)-2-methylphenyl)-1-oxoisoindolin-2-yl)-3-methylbutanoic acid]",> 50%
10,"CCCCCc1ccc(C(=O)Nc2ccc(-c3ccc4c(c3)C(=O)N([C@H](C(=O)O)C(C)C)C4)c(C)c2)cc1 [Example 474, (S)-3-Methyl-2-(6-(2-methyl-4-(4-pentylbenzamido)phenyl)-1-oxoisoindolin-2-yl)butanoic acid]",> 50%
11,"Cc1cc(NC(=O)c2ccc(OC(F)(F)F)cc2)ccc1-c1ccc2c(c1)C(=O)N([C@H](C(=O)O)C(C)C)C2 [Example 476, (S)-3-Methyl-2-(6-(2-methyl-4-(4-(trifluoromethoxy)benzamido)phenyl)-1-oxoisoindolin-2-yl)butanoic acid]",> 50%
12,"CCCCOc1ccc(C(=O)Nc2ccc(-c3ccc4c(c3)C(=O)N([C@H](C(=O)O)C(C)C)C4)c(Cl)c2)cc1 [Example 484, (S)-2-(6-(4-(4-Butoxybenzamido)-2-chlorophenyl)-1-oxoisoindolin-2-yl)-3-methylbutanoic acid]",> 50%
13,"CCCCCc1ccc(C(=O)Nc2ccc(-c3ccc4c(c3)C(=O)N([C@H](C(=O)O)C(C)C)C4)c(Cl)c2)cc1 [Example 486, (S)-2-(6-(2-Chloro-4-(4-pentylbenzamido)phenyl)-1-oxoisoindolin-2-yl)-3-methylbutanoic acid]",> 50%
14,"CC(C)[C@@H](C(=O)O)N1Cc2ccc(-c3ccc(NC(=O)c4ccc(OC(F)(F)F)cc4)cc3Cl)cc2C1=O [Example 488, (S)-2-(6-(2-Chloro-4-(4-(trifluoromethoxy)benzamido)phenyl)-1-oxoisoindolin-2-yl)-3-methylbutanoic acid]",> 50%
15,"CCCCCc1ccc(C(=O)Nc2ccc(-c3ccc4c(c3)C(=O)N([C@H](C(=O)O)C(C)C)C4)nn2)cc1 [Example 500, (S)-3-Methyl-2-(1-oxo-6-(6-(4-pentylbenzamido)pyridazin-3-yl)isoindolin-2-yl)butanoic acid]",> 50%

# Continued, values first:
row,inhibition at 1 µM,Compound
1,> 50%,"Cc1ccc(NC(=O)Nc2ccc(-c3ccc4c(c3)C(=O)N([C@H](C(=O)O)C(C)C)C4)cc2F)cc1C [Example 436, (S)-2-(6-(4-(3-(3,4-Dimethylphenyl)ureido)-3-fluorophenyl)-1-oxoisoindolin-2-yl)-3-methylbutanoic acid]"
2,> 50%,"CC(C)[C@@H](C(=O)O)N1Cc2ccc(-c3ccc(NC(=O)Nc4ccc(F)c(F)c4)c(F)c3)cc2C1=O [Example 440, (S)-2-(6-(4-(3-(3,4-Difluorophenyl)ureido)-3-fluorophenyl)-1-oxoisoindolin-2-yl)-3-methylbutanoic acid]"
3,> 50%,"CC(C)[C@@H](C(=O)O)N1Cc2ccc(-c3ccc(NC(=O)Nc4ccccc4Cl)c(F)c3)cc2C1=O [Example 442, (S)-2-(6-(4-(3-(2-Chlorophenyl)ureido)-3-fluorophenyl)-1-oxoisoindolin-2-yl)-3-methylbutanoic acid]"
4,> 50%,"CC(C)[C@@H](C(=O)O)N1Cc2ccc(-c3ccc(NC(=O)c4ccc(C(C)(C)C)cc4)c(F)c3)cc2C1=O [Example 444, (S)-2-(6-(4-(4-tert-Butylbenzamido)-3-fluorophenyl)-1-oxoisoindolin-2-yl)-3-methylbutanoic acid]"
5,> 50%,"CCCCCc1ccc(C(=O)Nc2ccc(-c3ccc4c(c3)C(=O)N([C@H](C(=O)O)C(C)C)C4)cc2F)cc1 [Example 446, (S)-2-(6-(3-Fluoro-4-(4-pentylbenzamido)phenyl)-1-oxoisoindolin-2-yl)-3-methylbutanoic acid]"
6,> 50%,"CC(C)[C@@H](C(=O)O)N1Cc2ccc(-c3ccc(NC(=O)c4ccc5ccccc5c4)c(F)c3)cc2C1=O [Example 450, (S)-2-(6-(4-(2-Naphthamido)-3-fluorophenyl)-1-oxoisoindolin-2-yl)-3-methyl butanoic acid]"
7,10 to 50%,"COc1cc(NC(=O)c2ccc(C(C)(C)C)cc2)ccc1-c1ccc2c(c1)C(=O)N([C@H](C(=O)O)C(C)C)C2 [Example 456, (S)-2-(6-(4-(4-tert-Butylbenzamido)-2-methoxyphenyl)-1-oxoisoindolin-2-yl)-3-methylbutanoic acid]"
8,> 50%,"Cc1cc(NC(=O)c2ccc(C(C)(C)C)cc2)ccc1-c1ccc2c(c1)C(=O)N([C@H](C(=O)O)C(C)C)C2 [Example 468, (S)-2-(6-(4-(4-tert-Butylbenzamido)-2-methylphenyl)-1-oxoisoindolin-2-yl)-3-methylbutanoic acid]"
9,> 50%,"CC(C)[C@@H](C(=O)O)N1Cc2ccc(-c3ccc(NC(=O)c4ccc(C(C)(C)C)cc4)cc3Cl)cc2C1=O [Example 480, (S)-2-(6-(4-(4-tert-Butylbenzamido)-2-chlorophenyl)-1-oxoisoindolin-2-yl)-3-methylbutanoic acid]"
10,> 50%,"CC(C)[C@@H](C(=O)O)N1Cc2ccc(-c3ccc(NC(=O)c4ccc(C(C)(C)C)cc4)nc3)cc2C1=O [Example 492, (S)-2-(6-(6-(4-tert-Butylbenzamido)pyridin-3-yl)-1-oxoisoindolin-2-yl)-3-methylbutanoic acid]"
11,> 50%,"CC(C)[C@@H](C(=O)O)N1Cc2ccc(-c3ccc(NC(=O)c4ccc(C(C)(C)C)cc4)nn3)cc2C1=O [Example 498, (S)-2-(6-(6-(4-tert-Butylbenzamido)pyridazin-3-yl)-1-oxoisoindolin-2-yl)-3-methylbutanoic acid]"
